Assay [1] addresses T1, Cholecystokinin receptor type A (Rattus norvegicus, UniProt P30551).
T1 sequence (P30551 whole entry): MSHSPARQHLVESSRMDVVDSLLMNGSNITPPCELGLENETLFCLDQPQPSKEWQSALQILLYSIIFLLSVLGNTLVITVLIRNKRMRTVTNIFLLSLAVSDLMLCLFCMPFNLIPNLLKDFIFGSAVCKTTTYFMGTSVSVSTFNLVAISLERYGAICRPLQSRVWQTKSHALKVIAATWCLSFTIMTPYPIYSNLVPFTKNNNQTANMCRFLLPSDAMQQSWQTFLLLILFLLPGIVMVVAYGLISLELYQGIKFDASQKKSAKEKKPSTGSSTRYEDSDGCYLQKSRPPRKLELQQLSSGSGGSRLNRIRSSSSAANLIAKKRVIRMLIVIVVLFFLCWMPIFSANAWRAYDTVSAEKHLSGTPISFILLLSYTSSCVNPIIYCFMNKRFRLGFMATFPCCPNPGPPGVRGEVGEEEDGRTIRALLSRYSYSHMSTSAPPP
Nature of the assay: Evaluated in vitro for Cholecystokinin type A receptor affinity by measuring its ability to displace tritiated CCK-8S bound on rat pancreas Cholecystokinin type A receptor.

The species named for another assay is Rattus norvegicus. Nature of the assay: Ratio of CCK-B receptor affinity and CCK-A receptor affinity.

Molecules are shown by their SMILES.

In the case of `CC(C)CCN1C(=O)C(NC(=O)Nc2cccc(N(C)C)c2)C(=O)N(CCC(C)C)c2ccccc21`, in assay [1], the inhibition constant (Ki) (commonly a dissociation constant, usually derived from enzyme kinetics or from competition with a known ligand) is 0.0832 µM. For the same compound, the Ratio in the assay listed under Rattus norvegicus is 32.

In the case of `CC(CC1CCCC1)N1C(=O)C(NC(=O)Nc2ccccc2)C(=O)N(C(C)CC2CCCC2)c2ccccc21` (stereo unspecified), the inhibitory constant (Ki) in assay [1] is 0.229 µM.

On to `O=C(Nc1ccccc1)NC1C(=O)N(CC23CC4CC(CC(C4)C2)C3)c2ccccc2N(CC23CC4CC(CC(C4)C2)C3)C1=O` (stereo unspecified), for which, in assay [1], the inhibition constant (Ki) is 2 µM. Moreover, the Ratio in the assay listed under Rattus norvegicus worked out at 58.

`CC(C)CCN1C(=O)C(NC(=O)Nc2cccc(N(C)C)c2)C(=O)N(CC23CC4CC(CC(C4)C2)C3)c2ccccc21` (stereo unspecified): the affinity in assay [1], expressed as Ki, was 0.955 µM. The Ratio in the assay listed under Rattus norvegicus amounted to 170.

With `O=C(Nc1ccccc1)N[C@@H]1C(=O)N(CC23CC4CC(CC(C4)C2)C3)c2ccccc2N(c2ccccc2)C1=O` (single isomer, unassigned; (+)), affinity in assay [1] was put at a Ki of 1.12 µM.

Consider `O=C(Nc1ccccc1)NC1C(=O)N(CC23CC4CC(CC(C4)C2)C3)c2ccccc2N(C2CCCCC2)C1=O` (stereo unspecified), for which the Ki in assay [1] was 0.562 µM. The Ratio in the assay filed under Rattus norvegicus is 234.

Take `O=C(NC1C(=O)N(CC23CC4CC(CC(C4)C2)C3)c2ccccc2N(C2CCCCC2)C1=O)Oc1ccccc1` (stereo unspecified): affinity in assay [1] was put at a Ki of 1.1 µM. The Ratio in the assay listed under Rattus norvegicus turned out to be 26.

`CC(C)CCN1C(=O)C(NC(=O)Oc2cccc(N(C)C)c2)C(=O)N(CC23CC4CC(CC(C4)C2)C3)c2ccccc21` (stereo unspecified): the affinity in assay [1], expressed as Ki, was 1.58 µM. For the same compound, in the assay listed under Rattus norvegicus, the Ratio amounted to 209.

Compound `CC(C)CCN1C(=O)C(NC(=O)Nc2ccccc2)C(=O)N(Cc2ccccc2)c2ccccc21` (stereo unspecified) showed a Ki in assay [1] of 0.0661 µM. In the assay listed under Rattus norvegicus, the Ratio turned out to be 17.

In assay [1], `CC(C)CCN1C(=O)C(NC(=O)Oc2cccc(N(C)C)c2)C(=O)N(CCC(C)C)c2ccccc21` showed a Ki of 0.794 µM. Further, the Ratio in the assay listed under Rattus norvegicus was determined as 28.

As for `CC(C)CCN1C(=O)C(NC(=O)Oc2ccccc2)C(=O)N(CC23CC4CC(CC(C4)C2)C3)c2ccccc21` (stereo unspecified), the affinity in assay [1], expressed as Ki, was 1.41 µM. Besides, the Ratio in the assay listed under Rattus norvegicus came out at 42.

In the case of `CC(C)CCN1C(=O)C(NC(=O)Nc2ccccc2)C(=O)N(CCC(C)C)c2ccccc21`, in assay [1], the inhibitory constant (Ki) was 0.0617 µM. For the same compound, the Ratio in the assay listed under Rattus norvegicus came out at 26.

As for `CC(C)CCN1C(=O)C(NC(=O)Nc2ccccc2)C(=O)N(CC23CC4CC(CC(C4)C2)C3)c2ccccc21` (stereo unspecified), in assay [1], the Ki is 0.288 µM. The Ratio in the assay listed under Rattus norvegicus stood at 209.

The compound `O=C(Nc1cccc(Cl)c1)NC1C(=O)N(CC23CC4CC(CC(C4)C2)C3)c2ccccc2N(C2CCCCC2)C1=O` (stereo unspecified) had an inhibitory constant (Ki) in assay [1] of 0.24 µM. The Ratio in the assay filed under Rattus norvegicus is 22.
